These results are taken from patent US12129255B2, “Pyrido [2,3-d]pyrimidine derivatives as inhibitors of human immunodeficiency virus replication” (VIIV HEALTHCARE UK (No. 5) LIMITED, priority 2019, dated 2024).

By bioavailability is commonly meant the share of a dose that reaches the circulation, judged against a reference dose that is usually intravenous. By half-life is commonly meant how long it takes for the measured level to halve. Broadly, the CC50 is the concentration that lowers cell viability or growth by half. The EC50 is the concentration giving half of the maximal effect.

Data set [1] can be described thus: Allometric scaling of pre-clinical PK parameters to predict dose in human. On the procedure:
Human dose predictions were performed using Phoenix WinNonlin (v 8.0) software and Microsoft Excel using the ModelRisk add-in for population modeling. Human estimates for each compound's CLTp were obtained based on average allometric scaling of mouse, rat, monkey and dog IV data (body weight scaling factor of 0.75) and an average (body weight scaling factor of 1.0) from all species for VSS. Human IV parameters (Vc, Ka, K12, K21, Kel) were determined using Mean Residence Time (MRT) scaling from preclinical species (mouse, rat, dog and cyno) using the human VSS and CLTp estimates. Absorption (Ka) was determined by deconvolution (PO) or from the half-life (SC) in preclinical species (Ka=LN(2)/t1/2). The predicted human dose for PO and SC is calculated with consideration of human variability and is calculated to cover 95% of the human population.

A short description of data set [2]: Subcutaneous pharmacokinetics in rat. It is filed as in vivo, Wistar Han Rats. On the procedure:
Drug was formulated in 1% Kolliphor P188/1% PEG3350/3.5% Mannitol/94.5% Water and then administered to Wistar Han Rats as a subcutaneous injection at a dose of 20 mg/kg. Blood samples were collected at 0.167, 0.25, 0.5, 0.75, 1, 2, 3, 5, 7, 24, 48, 72, 96 h, and then every 3 days for up to 122 days. Blood samples were collected into K3EDTA tubes and centrifuged at 1500 to 2000×g to obtain plasma. Plasma samples were stored at −20° C. until analysis by LC-MS/MS.

A further data set relates to CYP2B6. As to the kind of experiment: Cytochrome P450 (CYP2B6) induction in cryopreserved human hepatocytes, mRNA fold-change method. The class given is in vitro ADME. The settings on record: hepatocytes from three donors, 0.12 to 30 μM, 48 hours; Example 1 all three donors, Example 60.2 2 of 3 donors. On the procedure: Following the guidance of the FDA (“In Vitro Metabolism- and Transporter-Mediated Drug-Drug Interaction Studies Guidance for Industry”), the potential of Example 1 and Example 60.2 to induce CYP2B6 expression was tested using hepatocytes from the same three individual donors (rather than pooled donors), and changes in enzyme mRNA levels were evaluated using the “fold-change method”. In this test a fold-change in mRNA levels less than 2-fold is considered a negative finding, while a change 2-fold is considered a positive finding.
Compounds were tested in a CYP induction assay using inducible cryopreserved human primary hepatocytes from three donors to determine the potential to cause induction (as measured by an increase in mRNA transcription) of CYP2B6. […] At the end of the incubation, the integrity of cell monolayers, cell density and viability were evaluated to assess cytotoxicity effects. […] Samples were then used in reverse transcription polymerase chain reactions (RT-PCR) to quantify the amount of specific mRNA species encoding the human CYP2B6 gene.
The induction potential of test compounds and controls was compared to known CYP2B6 inducer Phenobarbital (1000 μM). The results of this assay are expressed as fold induction. […] The cytotoxicity was also assessed in parallel to avoid false positive CYP induction results due to cytotoxicity. […]

Data set [3] in a line: Cytotoxicity in uninfected MT2 cells, XTT colorimetric assay. It is filed as cell-based. The settings on record: human, day 4, XTT. On the procedure: Compound cytotoxicity and the corresponding CC50 values were determined using the same protocol as described in the antiviral assay except that uninfected cells were used. Cytotoxicity was assessed on day 4 in uninfected MT2 cells by using an XTT (2,3-bis[2-Methoxy-4-nitro-5-sulfophenyl]-2H-tetrazolium-5-carboxyanilide inner salt)-based colorimetric assay (Sigma-Aldrich, St Louis, Mo).
On the technique in general: Formazan colour is commonly taken as a measure of viable cells.

In the next data set the test system is recombinant NL4-3 virus. The data set is described as follows: Antiviral activity toward recombinant NL4-3 Renilla luciferase virus in MT-2 cells. It is filed as cell-based, HIV. On the procedure: MT-2 cells, 293T cells and the proviral DNA clone of NL4-3 virus were obtained from the NIH AIDS Research and Reference Reagent Program. MT-2 cells were propagated in RPMI 1640 media supplemented with 10% heat inactivated fetal bovine serum (FBS), […]. The 293T cells were propagated in DMEM media supplemented with 10% heat inactivated FBS, […]. A recombinant NL4-3 proviral clone, in which a section of the nef gene was replaced with the Renilla luciferase gene, was used to make the reference virus used in these studies. The recombinant virus was prepared through transfection of the recombinant NL4-3 proviral clone into 293T cells using Transit-293 Transfection Reagent from Mirus Bio LLC (Madison, WI). Supernatant was harvested after 2-3 days and the amount of virus present was titered in MT-2 cells using luciferase enzyme activity as a marker by measuring luciferase enzyme activity. Luciferase was quantitated using the EnduRen Live Cell Substrate from Promega (Madison, WI). Antiviral activities of compounds toward the recombinant virus were quantified by measuring luciferase activity in MT-2 cells infected for 4-5 days with the recombinant virus in the presence of serial dilutions of the compound. […]

Like-named read-outs stand apart in the source and are kept apart here.

On to `Cn1nc(NS(C)(=O)=O)c2c(Cl)ccc(-n3c([C@H](Cc4cc(F)cc(F)c4)NC(=O)Cn4nc(C(F)F)c5c4C(F)(F)[C@@H]4C[C@H]54)nc4nc(OCCC(F)(F)F)ccc4c3=O)c21` (atropisomer, axis not shown; (P)) [Example 1, N—((S)-1-((3P)-3-(4-chloro-1-methyl-3-(methylsulfonamido)-1H-indazol-7-yl)-4-oxo-7-(3,3,3-trifluoropropoxy)-3,4-dihydropyrido[2,3-d]pyrimidin-2-yl)-2-(3,5-difluorophenyl)ethyl)-2-((3bS,4aR)-3-(difluoromethyl)-5,5-difluoro-3b,4,4a,5-tetrahydro-1H-cyclopropa[3,4]cyclopenta[1,2-c]pyrazol-1-yl)acetamide], for which, in data set [1] (once-daily oral, allometric scaling, to cover 95% of the human population), the “predicted human QD PO dose” value was “less than 10 mg”. The “predicted Q1M SC dose in human lower than for Example 60.2” value in data set [1] (once-monthly subcutaneous, from SC rat PK and predicted human clearance) was 15 fold. Further, in data set [1] (to maintain efficacious plasma concentration), the “predicted once-daily oral dose in human lower than for Example 60.2” value is listed as 7 fold. Also, the “% of the AUC extrapolated” value in data set [2] (SC 20 mg/kg) is given as 2.89%. Moreover, the “time drug concentrations were maintained above 7 ng/mL for all animals” value in data set [2] (SC 20 mg/kg (FIG. 1)) is listed as 73 days. In data set [2] (Wistar Han, plasma, SC 20 mg/kg), this compound registered a bioavailability of 93%. In addition, in data set [2] (Wistar Han, plasma, SC 20 mg/kg, read-out: apparent half-life of compound in plasma (converted)), the half-life was 13 days. Also, the “CYP2B6 induction finding (mRNA fold-change method)” value with CYP2B6 was “negative finding (a fold-change in mRNA levels less than 2-fold is considered a negative finding)”. The same compound came in with a half-maximal cytotoxic concentration (CC50) at 4 days in data set [3] of more than 500 nM. For the same compound, the EC50 was determined as 0.025 ± 0.008 nM with recombinant NL4-3 virus (Human immunodeficiency virus 1, NL43, MT2, read-out: EC50 (anti-HIV virology assay, revised average)) and 0.034 nM in the data set on recombinant NL4-3 virus (Human immunodeficiency virus 1, NL43, MT2, read-out: EC50 when initially tested).
